Assay results reported in patent US9878007B2, “Syndecan peptides and polypeptides as inhibitors of vascular endothelial growth factor receptor-2 (VEGFR2) and very late antigen-4 (VLA-4)” (Wisconsin Alumni Research Foundation, priority 2015, dated 2018).

Tests used:
HMEC-1 cells [1] = assay: In vitro tube formation assay of HMEC-1 cells on Matrigel; format: cell-based; settings: 24 hrs, 10 μM peptides
Method: (§1) FIGS. 8A-H. HPSE mediated the Sdc1-coupled VEGFR2 complex in endothelial cells induces angiogenesis. (FIG. 8A) Lysates from HPSE^low, HPSE^high and HMEC-1 cells are probed by immunoblotting for expression of HPSE. (FIG. 8B) HMEC-1 cells were seeded at equal density and grown in serum-free media for 24 hr in the absence or presence of 125 μg/ml of the HPSE inhibitor SST0001. After 24 hr, conditioned media were harvested, and the level of shed Sdc1 in the conditioned medium from each condition was determined by immunoblotting. (FIG. 8C) HMEC-1 cell lysate was incubated overnight with glutathione beads coated with GST or GST-S1ED. Capture of VLA-4 or VEGFR2 was detected by immunoblotting. (FIG. 8D) HMEC-1 cells were plated on IIICS for 3 hr and double stained for VLA-4 and Sdc1, VEGFR2 and Sdc1, or VLA-4 and VEGFR2. (FIG. 8E) HMEC-1 cells were treated with DMSO, VLA-4 blocking antibody P1H4, β1-integrin blocking antibody mAb13, 10 μg/ml MMP9 blocking antibody, 125 μg/ml HPSE inhibitor SST0001, Vandetanib, VEGFR2 blocking antibody, 30 μM S1ED^210-233 or 30 μM S1ED^214-240 and then plated on IIICS. Images were taken from random field with 200× magnification for counting attached and spread cells. (FIG. 8F) HMEC-1 cells were plated on IIICS in the presence of 10 μM of S1ED^210-236, S1ED^210-233, S1ED^215-240, and S1ED^214-240. Lysates were probed on immunoblots with antibodies against pY^1175 VEGFR2 and VEGFR2. (FIG. 8G) Transwell migration assays towards IIICS (for 16 hr) were performed for HMEC-1 cells in the presence of P1H4, SST0001, Anti-MMP9, Vandetanib, S1ED^210-236, S1ED^210-233, and S1ED^214-240. Images were taken from random field with 200× magnification for counting migrated cells. (FIG. 8H) A 96-well plate coated with 50 μl Matrigel containing 100 μg/ml IIICS per well was solidified at 37° C. for 2 hrs. HMEC-1 cells (2.5×10^4 cells/well) were seeded into the plate and cultured in media containing VEGF, SST0001, 10 μM of S1ED^210-236, S1ED^210-233, S1ED^215-240, and S1ED^214-240 for 24 hrs. Enclosed capillary networks of tubes were taken from random field with 200× magnification.

VLA-4 = molecular target: T1, VLA-4 (Homo sapiens, UniProt P05556+P13612); assay: GST pull down assay: capture of VLA-4 by GST-S1ED; format: binding; settings: HPSE^low cell lysates; peptide 30 M [sic]
T1 construct: the α4-integrin (VLA-4), which is expressed on myeloma cells; endogenous in cells; host or cells: CAG human myeloma cells (HPSE^low), whole-cell lysate
T1 sequence (P13612 34-1032): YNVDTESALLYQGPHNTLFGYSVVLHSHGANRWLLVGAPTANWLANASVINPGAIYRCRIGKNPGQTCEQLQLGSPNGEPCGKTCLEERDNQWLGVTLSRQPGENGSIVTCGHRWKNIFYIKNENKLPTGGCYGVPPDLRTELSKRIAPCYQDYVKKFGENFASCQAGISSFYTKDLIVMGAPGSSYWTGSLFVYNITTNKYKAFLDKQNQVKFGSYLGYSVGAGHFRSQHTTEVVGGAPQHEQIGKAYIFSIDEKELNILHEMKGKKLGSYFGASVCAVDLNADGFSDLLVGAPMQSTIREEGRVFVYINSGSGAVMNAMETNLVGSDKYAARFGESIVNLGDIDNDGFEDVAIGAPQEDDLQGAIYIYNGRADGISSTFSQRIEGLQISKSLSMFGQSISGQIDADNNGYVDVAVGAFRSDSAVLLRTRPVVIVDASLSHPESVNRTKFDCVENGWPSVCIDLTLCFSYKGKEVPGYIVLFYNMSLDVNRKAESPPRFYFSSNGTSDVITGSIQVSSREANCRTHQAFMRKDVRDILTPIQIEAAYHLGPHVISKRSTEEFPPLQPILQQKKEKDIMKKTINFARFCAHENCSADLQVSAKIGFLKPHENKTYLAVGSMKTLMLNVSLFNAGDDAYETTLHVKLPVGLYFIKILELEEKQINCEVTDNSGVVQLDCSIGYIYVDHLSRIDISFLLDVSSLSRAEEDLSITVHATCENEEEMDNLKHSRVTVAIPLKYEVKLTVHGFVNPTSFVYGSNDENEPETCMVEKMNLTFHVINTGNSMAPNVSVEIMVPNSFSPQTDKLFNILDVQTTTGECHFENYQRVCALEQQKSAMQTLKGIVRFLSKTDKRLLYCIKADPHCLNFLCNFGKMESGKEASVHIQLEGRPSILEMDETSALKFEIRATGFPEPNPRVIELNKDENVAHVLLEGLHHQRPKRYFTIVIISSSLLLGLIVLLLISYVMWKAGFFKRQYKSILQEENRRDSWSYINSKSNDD
T1 sequence (P05556 21-798): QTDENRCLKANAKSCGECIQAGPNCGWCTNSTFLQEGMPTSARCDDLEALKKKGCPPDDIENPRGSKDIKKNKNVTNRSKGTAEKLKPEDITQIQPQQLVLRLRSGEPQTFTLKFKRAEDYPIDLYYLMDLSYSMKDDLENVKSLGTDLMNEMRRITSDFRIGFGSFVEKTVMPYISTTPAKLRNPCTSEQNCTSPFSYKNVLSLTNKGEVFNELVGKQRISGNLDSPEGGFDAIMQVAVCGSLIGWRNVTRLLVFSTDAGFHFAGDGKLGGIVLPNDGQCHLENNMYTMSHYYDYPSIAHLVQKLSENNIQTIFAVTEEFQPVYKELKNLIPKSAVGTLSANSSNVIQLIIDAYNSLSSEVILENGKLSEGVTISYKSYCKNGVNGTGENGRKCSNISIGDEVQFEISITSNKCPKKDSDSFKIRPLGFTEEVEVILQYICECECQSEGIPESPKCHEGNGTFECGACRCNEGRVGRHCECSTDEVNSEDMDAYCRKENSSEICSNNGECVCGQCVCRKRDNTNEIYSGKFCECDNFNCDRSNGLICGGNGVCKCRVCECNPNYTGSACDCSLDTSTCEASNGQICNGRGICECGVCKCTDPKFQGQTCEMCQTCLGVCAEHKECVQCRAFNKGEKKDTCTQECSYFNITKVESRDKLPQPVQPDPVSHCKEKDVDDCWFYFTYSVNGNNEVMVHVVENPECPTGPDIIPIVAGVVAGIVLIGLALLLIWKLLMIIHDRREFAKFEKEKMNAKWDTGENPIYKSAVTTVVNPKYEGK
Method: (§2) FIGS. 6A-G. Peptides derived from the active site in Sdc1 activate or inhibit adhesion and invasion. (FIG. 6A) Transwell migration assays towards FN (for 16 hrs) were performed for HPSE low or high cells in the presence of 0, 0.3, 3, and 30 μM of S1ED^210-240. Cells migrating to the bottom side of the filter were counted from five random images for each treatment. (FIG. 6B) The sequence of S1ED210-240 is shown (SEQ ID NO: 3), as well as […] truncation mutants of the peptide (SEQ ID NOs: 5, 2, 4 and 7). Amino acids shown in red appear necessary for the spreading and invasive activity. (FIG. 6C) Images of HPSE^low and HPSE^high cells plated on FN for 2 hr. (FIG. 6D) HPSE^low cells were treated with 0, 0.3, 3, 10 and 30 μM of S1ED^210-236, S1ED^210-233, or S1ED^214-240, plated on FN for 2 hr, fixed and stained with fluorescent phalloidin. Cells from five random images were quantified for cell attachment and cell spreading. (FIG. 6E) HPSE^high cells were treated with 0, 3, 10, and 30 μM of S1ED^210-236, S1ED^210-233, and S1ED^214-240, plated on FN for 2 hr, then fixed, imaged and quantified as in FIG. 6D. (FIG. 6F) Transwell migration assays towards FN (for 16 hr) were performed for HPSE^low or HPSE^high cells in the presence of 30 μM of S1ED^210-236, S1ED^210-233, S1ED^214-240 and Vandetanib. (FIG. 6G) HPSE^low cell lysates were incubated overnight with glutathione beads coated with GST or GST-S1ED in the absence or presence of 30 μM of S1ED^210-236, S1ED^210-233, and S1ED^214-240. Capture of VLA-4 or VEGFR2 was detected by immunoblotting. Sequences in FIG. 6B are 210-240 (SEQ ID NO: 3), 210-236 (SEQ ID NO: 2), 210-233 (SEQ ID NO: 4), 214-240 (SEQ ID NO: 5) and 214-236 (SEQ ID NO: 7).
(§3) CAG cells were washed with CMF-PBS and then lysed for 20 min on ice in lysis buffer. Cell debris was removed by centrifugation at 13000 rpm for 20 min at 4° C. Whole cell lysates were then incubated at 4° C. overnight with either 3 μM GST or 3 μM GST-S1ED in the absence or presence of 1 μM, 3 μM, and 10 μM S1ED^210-240 peptide. GST or GST-S1ED was captured by addition of glutathione Sepharose and the beads were washed with ice-cold lysis buffer and CMF-PBS, prior to addition of SDS-PAGE sample buffer and analyszed by electrophoresis and western blotting as described previously.

HMEC-1 cells [2] = assay: Transwell migration / invasion assay of HMEC-1 cells; format: cell-based; settings: 16 hr
Method: as §1, with “HMEC-1 cells (2.5×10^4 cells/well) were seeded into the plate and cultured in media containing VEGF, SST0001, 10 μM of S1ED^210-236, S1ED^210-233, S1ED^215-240, and S1ED^214-240 for 24 hrs. Enclosed capillary networks of tubes were taken from random field with 200× magnification.” left out
The bottom chambers of Transwell filter chambers (8 μm pores; Corning) were coated with 40 μg/ml of FN. […] Cells from at least five random fields were counted.

CAG myeloma cells [3] = assay: Cell spreading / attachment assay of CAG myeloma cells on FN or VCAM-1; format: cell-based, human
HMEC-1 cells [4] = assay: Attachment and spreading of HMEC-1 cells on IIICS; format: cell-based; settings: plated on IIICS; 30 μM peptides, 125 μg/ml SST0001, 10 μg/ml MMP9 blocking antibody
Method: FIGS. 8A-H. HPSE mediated the Sdc1-coupled VEGFR2 complex in endothelial cells induces angiogenesis. (FIG. 8A) Lysates from HPSE^low, HPSE^high and HMEC-1 cells are probed by immunoblotting for expression of HPSE. (FIG. 8B) HMEC-1 cells were seeded at equal density and grown in serum-free media for 24 hr in the absence or presence of 125 μg/ml of the HPSE inhibitor SST0001. After 24 hr, conditioned media were harvested, and the level of shed Sdc1 in the conditioned medium from each condition was determined by immunoblotting. (FIG. 8C) HMEC-1 cell lysate was incubated overnight with glutathione beads coated with GST or GST-S1ED. Capture of VLA-4 or VEGFR2 was detected by immunoblotting. (FIG. 8D) HMEC-1 cells were plated on IIICS for 3 hr and double stained for VLA-4 and Sdc1, VEGFR2 and Sdc1, or VLA-4 and VEGFR2. (FIG. 8E) HMEC-1 cells were treated with DMSO, VLA-4 blocking antibody P1H4, β1-integrin blocking antibody mAb13, 10 μg/ml MMP9 blocking antibody, 125 μg/ml HPSE inhibitor SST0001, Vandetanib, VEGFR2 blocking antibody, 30 μM S1ED^210-233 or 30 μM S1ED^214-240 and then plated on IIICS. Images were taken from random field with 200× magnification for counting attached and spread cells. (FIG. 8F) HMEC-1 cells were plated on IIICS in the presence of 10 μM of S1ED^210-236, S1ED^210-233, S1ED^215-240, and S1ED^214-240. […]

VEGFR2 = molecular target: T2, VEGFR2 (Homo sapiens, UniProt P35968); assay: GST pull down assay: capture of VEGFR2 by GST-S1ED; format: binding; settings: HPSE^low cell lysates; peptide 30 M [sic]
T2 construct: endogenous in cells; host or cells: CAG human myeloma cells (HPSE^low = empty vector; HPSE^high = human HPSE cDNA)
T2 sequence (P35968 20-1356): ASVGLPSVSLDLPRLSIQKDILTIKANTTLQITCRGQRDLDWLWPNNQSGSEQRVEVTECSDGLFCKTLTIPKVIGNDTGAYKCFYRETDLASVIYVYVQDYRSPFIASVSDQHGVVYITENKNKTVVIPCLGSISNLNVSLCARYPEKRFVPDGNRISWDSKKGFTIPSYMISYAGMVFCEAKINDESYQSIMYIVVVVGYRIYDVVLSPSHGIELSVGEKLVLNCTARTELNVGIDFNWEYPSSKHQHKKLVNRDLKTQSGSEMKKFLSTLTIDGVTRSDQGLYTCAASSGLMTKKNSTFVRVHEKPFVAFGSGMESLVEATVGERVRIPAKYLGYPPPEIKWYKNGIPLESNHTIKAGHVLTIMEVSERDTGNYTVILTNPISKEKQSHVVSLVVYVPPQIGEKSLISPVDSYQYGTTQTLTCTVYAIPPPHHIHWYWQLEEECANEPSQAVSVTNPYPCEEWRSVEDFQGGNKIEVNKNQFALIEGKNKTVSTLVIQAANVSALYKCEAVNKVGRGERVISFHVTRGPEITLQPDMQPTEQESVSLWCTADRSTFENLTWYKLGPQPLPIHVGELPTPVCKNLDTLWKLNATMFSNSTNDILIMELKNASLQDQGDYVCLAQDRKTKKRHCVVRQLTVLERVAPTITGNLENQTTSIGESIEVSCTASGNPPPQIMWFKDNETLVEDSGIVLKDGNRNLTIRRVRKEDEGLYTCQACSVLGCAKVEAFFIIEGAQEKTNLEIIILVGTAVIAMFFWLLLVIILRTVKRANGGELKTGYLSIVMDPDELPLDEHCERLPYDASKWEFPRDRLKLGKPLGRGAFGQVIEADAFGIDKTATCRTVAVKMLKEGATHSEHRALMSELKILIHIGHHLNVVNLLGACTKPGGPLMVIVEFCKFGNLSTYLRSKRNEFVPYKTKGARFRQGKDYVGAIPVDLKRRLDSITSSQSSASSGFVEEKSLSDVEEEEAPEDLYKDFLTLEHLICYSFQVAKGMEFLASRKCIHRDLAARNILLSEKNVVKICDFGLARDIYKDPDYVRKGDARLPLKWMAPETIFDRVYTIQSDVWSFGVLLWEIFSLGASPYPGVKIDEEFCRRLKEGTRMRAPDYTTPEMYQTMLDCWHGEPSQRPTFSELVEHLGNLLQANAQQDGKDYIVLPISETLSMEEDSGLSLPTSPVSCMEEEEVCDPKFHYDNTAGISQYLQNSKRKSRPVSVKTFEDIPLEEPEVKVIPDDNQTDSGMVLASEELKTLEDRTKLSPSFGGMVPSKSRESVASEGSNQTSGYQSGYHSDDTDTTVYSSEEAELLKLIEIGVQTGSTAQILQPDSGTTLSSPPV
Method: as §2, §3

CAG myeloma cells [5] = assay: Cell spreading / attachment assay of CAG myeloma cells on FN or VCAM-1; format: cell-based, human; remark: listed apart in the source
Method: Nitrocellulose-coated slides were coated for 2 hr at 37° C. with 40 μg/ml FN (kindly provided by Dr. Donna Peters, University of Wisconsin-Madison) or 5 μg/ml recombinant VCAM-1/Fc chimera (R&D Systems) in calcium and magnesium-free PBS (CMF-PBS; 135 mM NaCl, 2.7 mM KCl, 10.2 mM Na2HPO4-7H20 and 1.75 mM KH2PO4, pH7.4). Slides were blocked for 1 hr at 37° C. with RPMI 1640 containing 1% heat-denatured BSA (plating medium). Cells in plating medium were allowed to attach and spread for 2.5 hr at 37° C. Slides were fixed in 4% EM grade paraformaldehyde (Electron Microscopy Sciences) in CMF-PBS and labeled for 30 min in 0.13 μM rhodamine phalloidin (Invitrogen) in CMF-PBS. Coverslips were mounted in non-fluorescing mounting medium (Immumount; Thermo Shandon) and allowed to dry. All images were acquired with a Nikon Microphot FX microscope using a 20× objective (Nikon; Ex 541-551, DM 580, Barrier 590), Photometric CoolSnap ES camera, and version 7.7.3.0 Metamorph© Imaging software (Molecular Devices). All images represent results from triplicate wells and at least three independent experiments.

[6] = on FN, 2 hr, 0, 3, 10 and 30 μM peptide

| Molecule | tube formation by HMEC-1 cells (HMEC-1 cells [1]) | competition for capture of VLA-4 by GST-S1ED (VLA-4) | invasion of HMEC-1 cells (HMEC-1 cells [2]) | HPSE^low cell spreading (CAG myeloma cells [3]; on FN, 2 hr, 0, 0.3, 3, 10 and 30 μM peptide) | HPSE^high cell adhesion (CAG myeloma cells [3]; [6]) | HPSE^high cell spreading (CAG myeloma cells [3]; [6]) | HPSE^low cell adhesion (CAG myeloma cells [3]; on FN, 2 hr, high concentrations (30 μM)) | VLA-4 dependent spreading of HMEC-1 cells (HMEC-1 cells [4]) | competition for capture of VEGFR2 by GST-S1ED (VEGFR2) | induction of HPSE^low cell spreading by S1ED peptides (CAG myeloma cells [5]; on VCAM-1, 0.3 μM peptide) | induction of HPSE^low cell spreading by VEGF (CAG myeloma cells [3]; 20 ng/ml VEGF) | induction of HPSE^low cell spreading (CAG myeloma cells [5]; heparinase III pre-treatment before plating on FN and VCAM-1) |
| --- | --- | --- | --- | --- | --- | --- | --- | --- | --- | --- | --- | --- |
| S1ED^214-240: syndecan-1 ectodomain peptide, residues 214-240 (SEQ ID NO: 5) (ETSGENTAVVAVEPDRRNQSPVDQGAT) | blocks tube formation | only competes for capture of VEGFR2 | all block invasion | does not cause cell spreading | has no effect on cell adhesion | blocks the spreading of HPSE^high cells | does not cause cell spreading or block adhesion | prevented | only competes for capture of VEGFR2 | do not |  |  |
| VEGF [reference compound] | not enhanced by VEGF |  |  |  |  |  |  |  |  |  | failed to induce spreading of the cells |  |
| HPIII: heparinase III, a bacterial enzyme that completely degrades the HS (protein, UniProt Q59289 25-659, looked up) Heparin-sulfate lyase: QSSSITRKDFDHINLEYSGLEKVNKAVAAGNYDDAAKALLAYYREKSKAREPDFSNAEKPADIRQPIDKVTREMADKALVHQFQPHKGYGYFDYGKDINWQMWPVKDNEVRWQLHRVKWWQAMALVYHATGDEKYAREWVYQYSDWARKNPLGLSQDNDKFVWRPLEVSDRVQSLPPTFSLFVNSPAFTPAFLMEFLNSYHQQADYLSTHYAEQGNHRLFEAQRNLFAGVSFPEFKDSPRWRQTGISVLNTEIKKQVYADGMQFELSPIYHVAAIDIFLKAYGSAKRVNLEKEFPQSYVQTVENMIMALISISLPDYNTPMFGDSWITDKNFRMAQFASWARVFPANQAIKYFATDGKQGKAPNFLSKALSNAGFYTFRSGWDKNATVMVLKASPPGEFHAQPDNGTFELFIKGRNFTPDAGVFVYSGDEAIMKLRNWYRQTRIHSTLTLDNQNMVITKARQNKWETGNNLDVLTYTNPSYPNLDHQRSVLFINKKYFLVIDRAIGEATGNLGVHWQLKEDSNPVFDKTKNRVYTTYRDGNNLMIQSLNADRTSLNEEEGKVSYVYNKELKRPAFVFEKPKKNAGTQNFVSIVYPYDGQKAPEISIRENKGNDFEKGKLNLTLTINGKQQLVLVP |  |  |  |  |  |  |  |  |  |  |  | induces spreading of HPSE^low cells comparable to that observed for HPSE^high cells |
